The values below come from ChEMBL document CHEMBL1201862, “PubChem BioAssay data set” (2004).

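Test compounds were applied to cells in 96-well plates for 48 hours at 5 doses. Here, GI50 denotes the concentration required for 50% inhibition of growth.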 Active and inactive are the calls of the source. Rule as the data show it: active = GI50 up to about 1.1 µM and inactive = higher. Some results are limits rather than exact numbers.

Test systems include SR; HCT-116; SF-268; HOP-62; ACHN; OVCAR-4; HL-60; SK-MEL-5; T47D; U-251; HCT-15; MDA-MB-231; SNB-75; IGROV-1; OVCAR-8; MDA-MB-435; M14; NCI/ADR-RES; HCC 2998; NCI-H23.
Test in all cases: NCI anticancer screen, dose series, 48 h

On to `Cc1cc(NS(=O)(=O)c2ccc(NC(=O)c3ccc4nc5ccccc5c(Nc5ccc(S(=O)(=O)N=C(N)N)cc5)c4c3)cc2)no1`, for which the GI50 with SR was 18.3 µM (inactive); in the test on HCT-116 it was 17.3 µM (inactive); in the test with SF-268, 19 µM (inactive); in the test with HOP-62, 17.5 µM (inactive); in the test with ACHN it was 13.6 µM (inactive); in the test with OVCAR-4, 14.3 µM (inactive). Moreover, the GI50 with HL-60 is 17.5 µM (inactive); in the test with SK-MEL-5, 16.2 µM (inactive); with T47D it was 14.6 µM (inactive); in the test on U-251 it was 16.2 µM (inactive); with HCT-15, 15.4 µM; with MDA-MB-231, 14.5 µM (inactive). Also, the GI50 was 18.6 µM (inactive) in the test on SNB-75; 16.2 µM (inactive) with IGROV-1; 18.2 µM (inactive) in the test on OVCAR-8; 19.9 µM (inactive) with MDA-MB-435; 15.1 µM (inactive) in the test with M14; 25.2 µM (inactive) in the test with NCI/ADR-RES. Besides, the GI50 in the test with HCC 2998 is 16 µM (inactive); with NCI-H23 it was 18.8 µM (inactive).

With `COc1cccc2ccc3c(c12)C(=O)OC31CCc2c(C)cccc21` (stereo not given), the GI50 with SR is 7.16 µM (inactive); with HCT-116, 8.49 µM (inactive); with SF-268, 30.3 µM (inactive); in the test with HOP-62 it was 18.5 µM (inactive); with ACHN, 8.04 µM (inactive); with OVCAR-4, 15.2 µM (inactive). Moreover, the GI50 with HL-60 is 8.59 µM (inactive); in the test on SK-MEL-5, 10.2 µM (inactive); in the test with T47D, 32.4 µM (inactive); in the test on U-251 it was 23.2 µM (inactive); in the test on HCT-15, 10.3 µM; with MDA-MB-231, 36.1 µM (inactive). Also, the GI50 in the test on SNB-75 is 13.4 µM (inactive); in the test with IGROV-1 it was 34.5 µM (inactive); with OVCAR-8, 15.8 µM (inactive); in the test with MDA-MB-435, 20.4 µM (inactive); with M14, 19.9 µM (inactive); in the test on NCI/ADR-RES, 13.4 µM (inactive). Also, the GI50 with HCC 2998 was 26.7 µM (inactive); in the test on NCI-H23, 8.51 µM (inactive).

With `CCCCCCCCCCCCP(=O)(O)OCC(N)C(=O)O` (stereo not given), the GI50 in the test with SR is 24.2 µM (inactive); in the test with HCT-116, 13.3 µM (inactive); with SF-268, 23.9 µM (inactive); in the test with HOP-62, 16.1 µM (inactive); in the test on ACHN, 40.3 µM (inactive); with OVCAR-4, 76.2 µM (inactive). The GI50 in the test with HL-60 is 15.8 µM (inactive); with SK-MEL-5, 32.5 µM (inactive); with T47D, > 100 µM (inactive); with U-251 it was 11.4 µM (inactive); in the test on HCT-15 it was 17.5 µM; in the test with MDA-MB-231, 16.4 µM (inactive). Also, the GI50 with SNB-75 is 11.4 µM (inactive); in the test on IGROV-1, 30.1 µM (inactive); in the test on OVCAR-8 it was 35.5 µM (inactive); with MDA-MB-435 it was 18.3 µM (inactive); in the test on M14, 48.8 µM (inactive); in the test on NCI/ADR-RES it was 31.4 µM (inactive). The GI50 in the test with HCC 2998 is 30.5 µM (inactive); in the test with NCI-H23 it was 48.9 µM (inactive).

On to `Cc1cc(N(CCC#N)CCC#N)ccc1/C=N/NC(=O)c1ccccc1`, for which the GI50 is 1.34 µM (inactive) with SR; 7.57 µM (inactive) with HCT-116; > 48.8 µM (inactive) in the test with SF-268; 31.8 µM (inactive) with HOP-62; 85.3 µM (inactive) in the test on ACHN; 65.8 µM (inactive) in the test on OVCAR-4. Also, the GI50 is 4.17 µM (inactive) in the test on HL-60; 22 µM (inactive) in the test with SK-MEL-5; 24.8 µM (inactive) in the test on T47D; 22.5 µM (inactive) in the test with U-251; 5.28 µM in the test on HCT-15; 15 µM (inactive) in the test on MDA-MB-231. Further, the GI50 is 28.9 µM (inactive) with SNB-75; 12.9 µM (inactive) in the test on IGROV-1; 23.5 µM (inactive) in the test on OVCAR-8; 2.42 µM (inactive) in the test with MDA-MB-435; 40.6 µM (inactive) in the test on M14; 8.63 µM (inactive) in the test with NCI/ADR-RES. Moreover, the GI50 in the test on HCC 2998 is 9.2 µM (inactive); in the test on NCI-H23 it was 25.2 µM (inactive).

As for `COc1ccc2[nH]c3c(c2c1)COc1ccccc1C3=O`, the GI50 in the test with SR, with HCT-116, in the test with SF-268, in the test with HOP-62, in the test with ACHN and in the test with OVCAR-4 was > 100 µM (inactive) throughout. Also, the GI50 in the test with HL-60 was > 100 µM (inactive); in the test on SK-MEL-5 it was > 100 µM (inactive); in the test with T47D, 44.4 µM (inactive); with U-251, > 100 µM (inactive); in the test on HCT-15 it was more than 100 µM; in the test on MDA-MB-231 it was > 100 µM (inactive). The GI50 with SNB-75 was 18.6 µM (inactive); in the test with IGROV-1, > 100 µM (inactive); in the test with OVCAR-8, > 100 µM (inactive); with MDA-MB-435, 25.4 µM (inactive); with M14, > 100 µM (inactive); with NCI/ADR-RES it was > 100 µM (inactive). Moreover, the GI50 in the test on HCC 2998 and with NCI-H23 was > 100 µM (inactive) in each case.

On to `N#Cc1ccc(/C=N/NC(=O)CSCC(=O)N/N=C/c2ccc(C#N)cc2)cc1`, for which the GI50 with SR, in the test with HCT-116, in the test with SF-268, in the test on HOP-62, in the test on ACHN and in the test with OVCAR-4 was > 100 µM (inactive) throughout. For the same compound, the GI50 in the test on HL-60 was > 100 µM (inactive); with SK-MEL-5 it was > 100 µM (inactive); with T47D, > 100 µM (inactive); in the test with U-251, 48.1 µM (inactive); in the test with HCT-15 it was more than 100 µM; in the test with MDA-MB-231, 29.1 µM (inactive). In addition, the GI50 in the test with SNB-75 was 26.3 µM (inactive); in the test on IGROV-1, > 100 µM (inactive); in the test with OVCAR-8, 53.1 µM (inactive); in the test with MDA-MB-435 it was > 100 µM (inactive); in the test on M14, > 100 µM (inactive); in the test with NCI/ADR-RES it was > 100 µM (inactive). Besides, the GI50 with HCC 2998 and in the test with NCI-H23 was > 100 µM (inactive) each time.

Turning to `O=C1c2cccc3cc([N+](=O)[O-])cc(c23)C(=O)N1Nc1ccc([N+](=O)[O-])cc1[N+](=O)[O-]`, the GI50 is 2.64 µM (inactive) in the test on SR; 10.9 µM (inactive) in the test with HCT-116; 21.7 µM (inactive) in the test with SF-268; 14 µM (inactive) in the test on HOP-62; 0.557 µM (active) with ACHN; 19.3 µM (inactive) in the test on OVCAR-4. Moreover, the GI50 in the test with HL-60 was 4.23 µM (inactive); with SK-MEL-5 it was 13 µM (inactive); in the test on T47D it was 16.4 µM (inactive); with U-251 it was 13.3 µM (inactive); in the test with HCT-15 it was 14.5 µM; in the test with MDA-MB-231, 16.8 µM (inactive). Also, the GI50 with SNB-75 is 18.2 µM (inactive); in the test with IGROV-1, 12.4 µM (inactive); with OVCAR-8, 13 µM (inactive); with MDA-MB-435 it was 20.2 µM (inactive); in the test with M14, 24.7 µM (inactive); in the test with NCI/ADR-RES, 19.1 µM (inactive). The GI50 in the test with HCC 2998 is 14 µM (inactive); in the test with NCI-H23 it was 17.9 µM (inactive).

Regarding `Cc1ccc(NC(=O)CC(=O)N2N=C(N(C)c3ccccc3)CC2c2ccccc2)cc1` (stereo not given), the GI50 in the test with SR was > 100 µM (inactive); in the test with HCT-116, > 100 µM (inactive); with SF-268 it was > 100 µM (inactive); in the test on HOP-62 it was > 100 µM (inactive); in the test on ACHN it was > 100 µM (inactive); in the test with OVCAR-4 it was 68.5 µM (inactive). Besides, the GI50 with HL-60 was > 100 µM (inactive); in the test with SK-MEL-5 it was > 100 µM (inactive); in the test with T47D, > 100 µM (inactive); in the test on U-251, > 100 µM (inactive); in the test on HCT-15, more than 100 µM; in the test on MDA-MB-231 it was > 100 µM (inactive). In addition, the GI50 is 25.4 µM (inactive) with SNB-75; > 100 µM (inactive) in the test on IGROV-1; 58.7 µM (inactive) in the test with OVCAR-8; > 100 µM (inactive) in the test with MDA-MB-435; > 100 µM (inactive) in the test with M14; > 100 µM (inactive) in the test with NCI/ADR-RES. Also, the GI50 with HCC 2998 and in the test on NCI-H23 was > 100 µM (inactive) each time.

Take `C=CC1(c2ccc(Cl)c(Cl)c2)OCCO1`: the GI50 is 55.8 µM (inactive) in the test on SR; 97.7 µM (inactive) in the test on HCT-116; > 100 µM (inactive) with SF-268; 10.8 µM (inactive) in the test with HOP-62; > 100 µM (inactive) in the test on ACHN; > 100 µM (inactive) with OVCAR-4. In addition, the GI50 was 16.6 µM (inactive) in the test with HL-60; > 100 µM (inactive) with SK-MEL-5; > 100 µM (inactive) with T47D; > 100 µM (inactive) with U-251; more than 100 µM in the test on HCT-15; 1.83 µM (inactive) in the test on MDA-MB-231. Further, the GI50 with SNB-75 is 1.48 µM (inactive); with IGROV-1 it was > 100 µM (inactive); in the test on OVCAR-8, > 100 µM (inactive); in the test on MDA-MB-435, > 100 µM (inactive); in the test with M14, > 100 µM (inactive); in the test with NCI/ADR-RES, > 100 µM (inactive). For the same compound, the GI50 in the test on HCC 2998 was > 100 µM (inactive); in the test with NCI-H23, 45.8 µM (inactive).

For the compound `C=C1C[C@@H]2O[C@H]3[C@H]4[C@@H](C[C@@H](C)[C@@H](OC(C)=O)[C@H]42)[C@@H](C)CO[C@@]3(C)[C@H](OC(=O)CCCCCCC)C[C@H]1O`, the GI50 is 15.8 µM (inactive) in the test with SR; 16.5 µM (inactive) in the test with HCT-116; 16.1 µM (inactive) in the test with SF-268; 17.4 µM (inactive) with HOP-62; 20.7 µM (inactive) with ACHN; 12.8 µM (inactive) with OVCAR-4. Besides, the GI50 in the test with HL-60 was 12.4 µM (inactive); in the test on SK-MEL-5 it was 15.5 µM (inactive); in the test on T47D, 11.1 µM (inactive); in the test on U-251, 16.9 µM (inactive); with HCT-15 it was 15.8 µM; in the test on MDA-MB-231 it was 13.8 µM (inactive). The GI50 with SNB-75 was 16.7 µM (inactive); with IGROV-1, 17.5 µM (inactive); with OVCAR-8, 16.2 µM (inactive); in the test on MDA-MB-435, 18.7 µM (inactive); in the test on M14, 20 µM (inactive); with NCI/ADR-RES it was 15.9 µM (inactive). For the same compound, the results for the GI50 in the test with HCC 2998 and in the test on NCI-H23 were 16.9 µM (inactive) and 19.8 µM (inactive), respectively.
